Values joined by “and” are separate entries in the source; they are usually repeats but may differ in a detail not shown here. Equal values may be shown once. Read-outs that look alike come from different tables or passages of the source.
What was measured:
[1] = test system: Tulane virus (TV)
[2] = test system: Tulane virus (TV); remark: listed apart in the source
[3] = test system: MNV; conditions: cited from earlier work
[4] = test system: Tulane virus (TV); remark: listed apart in the source
[5] = test system: HuNoV (GII.4 NoV)
[6] = test system: TV; conditions: cited from earlier work
[7] = test system: FCV; conditions: cited from earlier work
[8] = test system: Tulane virus capsid binding to Human Blood Group Antigen (HBGA) receptor

CCO [EtOH, ethanol]
detection of virus genome or amplification of virus [1]: neither virus genome nor amplification of virus was detectable
detection of virus genome or amplification of virus [2]: neither virus genome nor amplification of virus was detectable
EtOH concentration required to exceed 4 D reduction in virus titer [3]: 60%
reduction of TV titer [4]: over 99.5%
Ct [5]: 40.7 ± 1.4
Reduction(%) [5]: 99.3 ± 0.8%
completeness of inactivation of HuNoV [5]: not complete
reduction in copy number [5]: 99.33% and 88.5% and 99.3%
reduction in copy numbers [5]: < 3 log
ΔCt [5]: 9.7
EtOH concentration required to exceed 4 D reduction in virus titer [6]: 50-70%
EtOH concentration required to exceed 4 D reduction in virus titer [7]: 70%
Binding of viral capsid to Human Blood Group Antigen (HBGA) [8]: significantly reduced

Reference: patent US20150093744A1 (priority 2013, published 2015)
